“And” between values parts separate entries of the source, which are not always exact repeats. Identical values can stand only once. Like-named read-outs stand apart in the source and are kept apart here.
Columns and labels:
BMDCs = assay: LDH release (lytic cell death, pyroptosis) from LPS-primed BMDCs; assay type: cell-based, mouse; conditions: for cytotoxicity at 18.75 µM / cytotoxicity at 37.5 µM / cytotoxicity at 75 µM / cytotoxicity at 25 µM / cytotoxicity at 50 µM: Mus musculus, BMDC; for Average (% positive control): LDH release; for cytotoxicity at 25 µM / cytotoxicity at 50 µM: AH series table
Procedure: (§1) This was tested in cell culture in several different in vitro assays classically used to investigate inflammasome activation. These include measuring inflammasome-dependent lytic cell death (pyroptosis) by detecting release of the cytosolic enzyme lactate dehydrogenase (LDH) using a commercial colorimetric assay and release of proinflammatory cytokines like IL-1β by enzyme-linked immunosorbent assay (ELISA), analyzing cleavage and activation of caspase-1 and IL-1β by immunoblotting and immunofluorescence imaging of ASC speck formation. Lytic cell death was determined via LDH release. Assay results for compounds are illustrated in the Tables below, wherein the concentration of the compounds tested had been 50 μM or as indicated in the table, and the concentration of the known activators has been tested with 5 μM of nigericin, 100 μM of each R837 and CL097. For classification of the activity of a given molecule, release of IL-1β was quantified as % of IL-1% of a respective control activator used for the experiment (highlighted in tables with bold letters). The compounds listes in Table 1 were classified into 4 groups depending on their ability to induce the NLRP3 inflammasome activation, assessed by % IL-1β release as compared to the positive control.
(§2) Mouse bone marrow-derived dendritic cells (BMDCs) were isolated from femurs and tibias previously described (Gross, Olaf, 2012, “Measuring the inflammasome”, Methods in molecular biology, Clifton, N.J., 844, pp. 199-222.). In brief, tibias and femurs were carefully removed and put to sterile 70% ethanol for 1 minute. Using a 22-G needle attached to a 20 ml-syringe filled with sterile flushing medium, the bone marrow was pressed through the mesh of a […] cell strainer. The cells were spun down by centrifugation at 400×g, 4° C. for 5 minutes and red blood cells lysed by resuspension and incubation for 5 minutes at room temperature in RBC lysis buffer. 9 ml of flushing medium were added and cells were again spun down by centrifugation at 400×g, 4° C. for 5 minutes. Cells were then resuspended in BMDC medium (RPMI, 10% fetal bovine serum, 1% penicillin-streptomycin100 U/ml, 20 ng/ml recombinant murine GM-CSF), counted and plated at a density of 0.5×10^6 cells ml^−1 in 10 ml medium and incubated at 37° C., 5% CO2 in a humidified incubator. After 2 days, 10 ml of fresh medium were added to the cells and after 4 days, the medium was fully exchanged to 20 ml of fresh medium. The cells were allowed to differentiate for 6 to 8 days before usage.
(§3) For canonical inflammasome activation BMDCs after 7-9 days of differentiation were harvested and counted with a Neubauer Chamber (Hecht Assistant) and the concentration was set to 1 Mio cells ml^−1. 100 μl cell suspension per well were seeded in 96-well plates. The cells were primed with 50 ng ml^−1 E. coli K12 ultra-pure LPS for 3 hours and subsequently treated with canonical inflammasome activators or experimental compounds for 3 hours if not indicated differently (incubation time FIG. 4D, 5, 7, 8, 11, 13-18: 3 h, FIG. 12: 4 h). Concentrations of the stimuli were as follows if not indicated differently: 5 μM nigericin, 100 μM imiquimod (also known as R837), 100 μM CL097, 100 μM R848, […] poly(dA:dT), 300 μg ml^−1 MSU. If an inhibitor was used before stimuli treatment, the inhibitor was added after 2.5 hours of priming and it was incubated for 30 minutes before inflammasome activation. Inhibitors were used as follows: 3 μM MCC950, 45 mM KCl, 30 μM ebselen (2-Phenyl-1,2-benzoselenazol-3-one), 5 μM cytochalasin D (see FIGS. 8, 11, 12 and 17).
(§4) All inflammasome stimulations were performed in three technical replicates for each condition. […]

NLRP3 inflammasome = target: T1, NLRP3 inflammasome (Mus musculus, UniProt Q8R4B8); assay: IL-1β release from LPS-primed BMDCs (ELISA) as readout of NLRP3 inflammasome activation; assay type: cell-based; conditions: for IL-1β: individual replicate values; for Average (% positive control): IL-1β
T1 construct: endogenous in cells; host or cells: primary mouse bone marrow-derived dendritic cells (BMDCs), LPS-primed
Procedure: as §1, §2, §3, §4

[1] = 25 μM, positive control EN22 10 μM
[2] = 50 μM, positive control EN22 10 μM
[3] = 75 μM, positive control EN22 10 μM
[4] = 25 μM, read-out: Average LDH release (% of max.)
[5] = 25 μM, individual replicate values, read-out: LDH release (% of max.)
[6] = 50 μM, read-out: Average LDH release (% of max.)
[7] = 50 μM, individual replicate values, read-out: LDH release (% of max.)
[8] = 75 μM, individual replicate values, read-out: LDH release (% of max.)
[9] = 75 μM, read-out: Average LDH release (% of max.)

T1 sequence (Q8R4B8 whole entry): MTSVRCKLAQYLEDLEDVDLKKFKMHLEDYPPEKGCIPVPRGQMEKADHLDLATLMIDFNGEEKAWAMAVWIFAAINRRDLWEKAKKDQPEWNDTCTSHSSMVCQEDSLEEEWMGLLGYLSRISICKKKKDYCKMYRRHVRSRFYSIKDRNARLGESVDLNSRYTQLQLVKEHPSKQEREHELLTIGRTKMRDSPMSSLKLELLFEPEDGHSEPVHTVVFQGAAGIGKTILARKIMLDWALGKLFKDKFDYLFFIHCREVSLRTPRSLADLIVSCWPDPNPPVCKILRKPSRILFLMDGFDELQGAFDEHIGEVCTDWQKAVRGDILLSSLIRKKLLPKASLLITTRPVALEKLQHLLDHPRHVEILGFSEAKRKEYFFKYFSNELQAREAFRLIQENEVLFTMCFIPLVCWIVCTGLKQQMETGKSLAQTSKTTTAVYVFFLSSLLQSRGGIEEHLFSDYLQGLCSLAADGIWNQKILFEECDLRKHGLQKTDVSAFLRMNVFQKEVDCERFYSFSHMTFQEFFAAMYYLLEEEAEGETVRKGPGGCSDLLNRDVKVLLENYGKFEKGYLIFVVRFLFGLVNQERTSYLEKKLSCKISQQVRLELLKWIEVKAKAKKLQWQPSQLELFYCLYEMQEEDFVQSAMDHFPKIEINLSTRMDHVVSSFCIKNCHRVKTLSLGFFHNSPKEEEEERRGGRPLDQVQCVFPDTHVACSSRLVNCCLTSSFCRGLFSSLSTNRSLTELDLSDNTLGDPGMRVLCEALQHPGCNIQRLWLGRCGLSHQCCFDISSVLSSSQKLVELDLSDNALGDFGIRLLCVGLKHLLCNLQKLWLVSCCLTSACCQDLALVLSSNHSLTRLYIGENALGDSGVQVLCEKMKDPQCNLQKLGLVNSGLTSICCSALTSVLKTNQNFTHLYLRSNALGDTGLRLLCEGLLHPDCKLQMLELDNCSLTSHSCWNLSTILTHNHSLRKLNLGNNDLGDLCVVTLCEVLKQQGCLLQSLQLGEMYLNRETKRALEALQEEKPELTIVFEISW

Row | SMILES | Average (% positive control) (BMDCs; [1]) | Average (% positive control) (BMDCs; [2]) | Average (% positive control) (BMDCs; [3]) | cytotoxicity at 25 µM (BMDCs; [4]) | cytotoxicity at 25 µM (BMDCs; [5]) | cytotoxicity at 50 µM (BMDCs; [6]) | cytotoxicity at 50 µM (BMDCs; [7]) | cytotoxicity at 75 µM (BMDCs; [8]) | cytotoxicity at 75 µM (BMDCs; [9]) | Average IL-1β (NLRP3 inflammasome; 25 μM, AH series table) | IL-1β (NLRP3 inflammasome; 25 μM, AH series table) | Average IL-1β (NLRP3 inflammasome; 50 μM, AH series table) | IL-1β (NLRP3 inflammasome; 50 μM, AH series table) | Average IL-1β (NLRP3 inflammasome; 75 μM, AH series table) | IL-1β (NLRP3 inflammasome; 75 μM, AH series table) | Average (% positive control) (NLRP3 inflammasome; [1]) | Average (% positive control) (NLRP3 inflammasome; [2]) | Average (% positive control) (NLRP3 inflammasome; [3]) | further results
1 | O=C(Nc1ccccc1Cl)Nc1ccc([N+](=O)[O-])cc1Cl [A.C2, 3-(2-chloro-4-nitrophen-yl)-1-(2-chlorophenyl)-urea] |  |  |  |  |  |  |  |  |  |  |  |  |  |  |  |  |  |  | cytotoxicity at 18.75 µM (BMDCs; section 1.4, 18.75 μM, read-out: Average LDH release (% of max.)): 17.8%; cytotoxicity at 37.5 µM (BMDCs; section 1.4, 37.5 μM, read-out: Average LDH release (% of max.)): 45.7%; cytotoxicity at 75 µM (BMDCs; section 1.4, 75 μM, read-out: Average LDH release (% of max.)): 75.8%; cytotoxicity at 18.75 µM (BMDCs; section 1.4, single replicates, 18.75 μM, read-out: LDH release (% of max.)): 18.4%; cytotoxicity at 37.5 µM (BMDCs; section 1.4, single replicates, 37.5 μM, read-out: LDH release (% of max.)): 46.6%; cytotoxicity at 75 µM (BMDCs; section 1.4, single replicates, 75 μM, read-out: LDH release (% of max.)): 77.1%; Average (% positive control) (BMDCs; section 1.4, 18.75 μM, positive control EN22 18.75 μM): 24.912 % positive control; Average (% positive control) (BMDCs; section 1.4, 37.5 μM, positive control EN22 18.75 μM): 64.016 % positive control; Average (% positive control) (BMDCs; section 1.4, 75 μM, positive control EN22 18.75 μM): 106.244 % positive control; Average IL-1β (NLRP3 inflammasome; 18.75 μM): 0.118 ng/mL; IL-1β (NLRP3 inflammasome; 18.75 μM): 0.128 ng/mL and 0.116 ng/mL and 0.111 ng/mL; Average IL-1β (NLRP3 inflammasome; 37.5 μM): 0.361 ng/mL; IL-1β (NLRP3 inflammasome; 37.5 μM): 0.377 ng/ml and 0.353 ng/ml (2×); Average IL-1β (NLRP3 inflammasome; 75 μM): 0.525 ng/mL; IL-1β (NLRP3 inflammasome; 75 μM): 0.459 ng/mL and 0.546 ng/mL and 0.571 ng/mL; Average (% positive control) (NLRP3 inflammasome; 18.75 μM, positive control EN22 18.75 μM): 1.870 % positive control; Average (% positive control) (NLRP3 inflammasome; 37.5 μM, positive control EN22 18.75 μM): 5.712 % positive control; Average (% positive control) (NLRP3 inflammasome; 75 μM, positive control EN22 18.75 μM): 8.308 % positive control
2 | O=C(Nc1cc(Cl)cc(Cl)c1)Nc1ccc([N+](=O)[O-])cc1Cl [AH1, 1-(2-chloro-4-nitrophenyl)-3-(3,5-dichlorophenyl) urea] | 53.499 % positive control | 74.390 % positive control | 78.340 % positive control | 41.1% | 42.1% | 57.1% | 55.7% | 60.7% | 60.2% | 1.177 ng/mL | 1.140 ng/mL and 1.156 ng/mL and 1.234 ng/mL | 1.578 ng/mL | 1.533 ng/mL and 1.609 ng/mL and 1.592 ng/mL | 1.533 ng/mL | 1.619 ng/mL and 1.382 ng/mL and 1.598 ng/mL | 11.766 % positive control | 15.776 % positive control | 15.328 % positive control | 
3 | O=[N+]([O-])c1ccc(NC(=S)Nc2cccc(Cl)c2)c(Cl)c1 [AH2, 1-(2-chloro-4-nitrophenyl)-3-(3-chlorophenyl) thiourea] | 29.680 % positive control | 28.819 % positive control | 33.532 % positive control | 22.8% | 23.9% | 22.1% | 22.8% | 25.1% | 25.8% | 0.194 ng/mL and 0.251 ng/mL | 0.197 ng/mL and 0.186 ng/mL and 0.200 ng/mL and 0.280 ng/mL and 0.232 ng/mL and 0.243 ng/mL |  |  | 0.187 ng/mL | 0.176 ng/ml and 0.193 ng/ml (2×) | 1.942 % positive control and 2.514 % positive control |  | 1.872 % positive control | 
4 | Cc1c(F)cccc1NC(=O)Nc1cccc(Cl)c1 [AH3, 1-(3-chlorophenyl)-3-(3-fluoro-2-methylphenyl) urea] | 16.733 % positive control | 29.496 % positive control | 44.370 % positive control | 12.9% | 12.8% | 22.7% | 22.2% | 34.6% | 34.1% | 0.588 ng/mL | 0.540 ng/mL and 0.630 ng/mL and 0.593 ng/mL | 1.519 ng/mL | 1.267 ng/mL and 1.615 ng/mL and 1.675 ng/mL | 2.224 ng/mL | 2.288 ng/mL and 2.351 ng/mL and 2.032 ng/mL | 5.875 % positive control | 15.193 % positive control | 22.240 % positive control | 

— US20240277658A1, “NLRP3 ACTIVATORS FOR USE IN THE TREATMENT OF INFECTIOUS DISEASES OR CANCER BY ACTIVATING NLRP3 INFLAMMASOME” (ALBERT-LUDWIGS-UNIVERSITÄT FREIBURG, priority 2020, published 2024)
